We go through one compound from publication PMC9230651, “Discovery of Novel Quinazoline Derivatives as Potent Antitumor Agents” (Molecules, 2022).

One series deals with MGC-803. Briefly: MTT assay, antiproliferative activity against MGC-803. The series is classed as cell-based, human. As to conditions: Homo sapiens, MGC-803, 72 h. Here is the method: (§1) Human gastric carcinoma cell line MGC-803, human breast adenocarcinoma cell line MCF-7, human lung carcinoma cell lines (PC-9, A549, and H1975), and human immortalized gastric mucosa epithelial cell line GES-1 were purchased from the Cell Bank of Shanghai Institute of Biochemistry and Cell Biology (Shanghai, China), and all of them were cultured in RPMI-1640 and DMEM complete medium (Solarbio, Beijing, China) at 37 °C in a 5% CO2 humidified atmosphere.
(§2) Briefly, cells were incubated with different concentrations of the test compound for different hours in each experiment for 72 h, followed by adding 20 μL MTT solution to each well, which was then incubated for another 4 h. An enzyme-linked immunosorbent assay reader (BioTek, South Plainfield, VT, USA) was used to measure absorbance values at 490 nm, and SPSS20 software was used to calculate the cell viability and IC50 values.
A general note: Tetrazolium assays rely on reduction of a dye to a coloured formazan, in cell work by metabolically active cells.

In another series the test system is MCF-7. As to the kind of experiment: MTT assay, antiproliferative activity against MCF-7. The series is classed as cell-based, human. As to conditions: Homo sapiens, MCF7, 72 h. Here is the method: as §1, §2
The test system of the next series is PC-9. As to the kind of experiment: MTT assay, antiproliferative activity against PC-9. The series is classed as cell-based, human. As to conditions: Homo sapiens, PC-9, 72 h. Here is the method: as §1, §2
In the next series the test system is A549. Briefly: MTT assay, antiproliferative activity against A549. Conditions: Homo sapiens, A549, 72 h. It counts as cell-based, human. Here is the method: as §1, §2
For another series, the system named is H1975. As to the kind of experiment: MTT assay, antiproliferative activity against H1975. It counts as cell-based, human. Conditions: Homo sapiens, NCI-H1975, 72 h. Here is the method:
as §1, §2

The test system of a further series is GES-1. Briefly: MTT assay, toxicity toward normal gastric epithelial cell line GES-1. The series is classed as cell-based, human. Here is the method: as §1, §2
For series [1], the system named is MGC-803 cells. Briefly: Wound healing migration assay. The series is classed as cell-based, human. As to conditions: 1 µM; 12 h, 24 h, 48 h. Here is the method:
For the wound healing assay, MGC-803 cells were seeded into 6-well plates, reaching the density of 90%, followed by being scraped off using a sterile yellow pipette tip and photographed. Subsequently, cells were treated with compound 18 at 1 µM for 12 h, 24 h, and 48 h, respectively, and then photographed again each time.

Series [2] concerns MGC-803 cells. Briefly: Transwell migration assay. Conditions: 0.37, 0.75, 1.5 µM; 48 h. The series is classed as cell-based, human. Here is the method: For the transwell assay, 600 µL of fresh medium was added to 20% FBS to the substrate of the 24-well plates. Then, 2 × 10^4 MGC-803 cells were seeded into each well, followed by incubation with 0.37 µM, 0.75 µM, and 1.5 µM compound 18 in the upper chambers for 48 h, which was then stained by DAPI solution and photographed.

Series [3] relates to MGC-803 cells. Briefly: Apoptosis, Annexin V-FITC/PI flow cytometry. The series is classed as cell-based, human. As to conditions: 1.5 μM, 48 h. Here is the method:
Cells were plated in 6-well plates and incubated with 0.37 µM, 0.75 µM, and 1.5 µM compound 18 for 48 h, followed by being harvested and stained by PI and Annexin V according to manufacturer’s protocol. Finally, flow cytometry (BD Bioscience, Franklin Lake, NJ, USA) was applied to detect apoptotic cells.
Background: A flow cytometer gives signals particle by particle.

The subject of series [4] is MGC-803 cells. Briefly: Western blot of apoptosis-related proteins. It counts as cell-based, human. Conditions: 0.37, 0.75, 1.5 µM; 48 h. Here is the method: Cells were incubated with 0.37 µM, 0.75 µM, and 1.5 µM compound 18 for 48 h and then collected with trypsin and total proteins and extracted in a lysis buffer. A BCA protein assay kit (Solarbio, Beijing, China) was used to confirm the concentration of the total proteins. These samples were detected by the standard protocol of western blot as described before.

For series [5], the system named is MGC-803 cells. Briefly: Cell cycle distribution, PI flow cytometry. The series is classed as cell-based, human. As to conditions: 0.37, 0.75, 1.5 µM; 48 h. Here is the method:
MGC-803 cells were seeded into 6-well plates at a concentration of 4 × 10^5 cells per well, followed by being incubated with 0.37 µM, 0.75 µM, and 1.5 µM compound 18 for 48 h, which were subsequently harvested and stained in 500 µL Propidium Iodide solution (PI 1 mg/mL, RNase A 10 mg/mL, Solarbio, Beijing, China) at room temperature without light for 30 min. Finally, flow cytometry (BD Bioscience, Franklin Lake, NJ, USA) was used to detect and analyze staining cells.

Series [6] concerns healthy male and female mice. Briefly: Acute toxicity assay. It counts as in vivo. As to conditions: 1000 mg/kg intragastric, single dose. Here is the method:
The solution of compound 18 was prepared in 80% PEG400 solution. Eight ICR mice (four male/four female, 24–28 g, aged five to six weeks) were obtained from the Beijing Vital River Laboratory Animal Technology Co., Ltd. (Beijing, China). All animal treatments were performed under the guidelines of the National Institutes of Health Guide for the Care and Use of Laboratory Animals using an approved animal protocol by the Zhengzhou University Committee on Animal Care. Male and female mice ([…]) were divided randomly into four groups: a male control group (n = 2), a female control group (n = 2), a male group (n = 2), and a female group (n = 2). All mice were deprived of feed for 12 h. 1 g/kg compound 18 was administered intragastrically in the experiment group of mice, while the mice in the control group received the same volume of vehicle solution on the first day, followed by monitoring abnormal behaviors, body weight, and the death of these mice every day during the following two weeks.

The test system of series [7] is xenograft model carrying MGC-803 cells. Briefly: In vivo anti-tumor activity, gastric cancer xenograft model. The arrangement: species or system mice. Conditions: 25 mg/kg intragastric per day for 21 days. Here is the method: Male mice (23–25 g, aged 5–6 weeks) were obtained from Beijing Vital River Laboratory Animal Technology Co., Ltd. (Beijing, China). All animal treatments were performed under the guidelines of the National Institutes of Health Guide for the Care and Use of Laboratory Animals using an approved animal protocol by the Zhengzhou University Committee on Animal Care (2020CHEM-ZZU-086). 1.0 × 10^7 MGC-803 cells were implanted in the right flank of mice subcutaneously. After 16 days, the tumor volume reached 100 mm^3, followed by being randomly divided into three groups (n = 7): solvent group, 5-Fu (10 mg/kg) group, and compound 18 (25 mg/kg) group. An intravenous injection of 5-Fu (10 mg/kg) was administered into the corresponding mice group every three days, while the mice in compound 18 group received intragastric administration of 25 mg/kg compound 18 per day for 21 days. Tumor diameter and body weight were measured every two days, followed by the euthanization of the mice after 34 days, after which tumor weights were.

The term IC50 denotes the concentration needed to halve the response being measured. The low end stands for higher potency, the high end for lower potency.

With `O=C(/C=C/c1ccc(Br)cc1)c1ccc(Nc2nc(-c3ccccc3)nc3ccccc23)cc1` [compound 18, (E)-3-(4-Bromophenyl)-1-(4-((2-phenylquinazolin-4-yl)amino)phenyl)prop-2-en-1-one], in the series with MGC-803, the IC50 was 850 ± 140 nM. Further, in the series with MCF-7, the midpoint of inhibition, the IC50, lay at 1610 ± 200 nM. In the series on PC-9, this compound registered an IC50 of 1260 ± 180 nM. In the series on A549, this compound registered an IC50 of 1540 ± 380 nM. The compound further returned an IC50 in the series on H1975 of 2120 ± 520 nM. The same compound gave an IC50 in the series on GES-1 (Homo sapiens, GES1, MTT, 72 h) of 26800 ± 1850 nM. For the same compound, the “selectivity MGC-803 against GES-1” value with GES-1 (IC50 GES-1 / IC50 MGC-803) is roughly 32 fold. For the same compound, the “effect on migration of MGC-803 cells, wound healing assay” value with MGC-803 cells [1] is reported as “effectively inhibit the migration of MGC-803 cells dose-dependently”. In addition, the “effect on migration of MGC-803 cells, transwell assay” value in the series on MGC-803 cells [2] is given as “effectively inhibit the migration of MGC-803 cells dose-dependently”. In addition, in the series with MGC-803 cells [3], the “apoptotic percentage (late and early apoptosis)” value is listed as 70.9%. In the series on MGC-803 cells [4], the “expression of Bax” value is “up-regulating”, the “expression of Bcl-2” value was “remarkably decreased”, the “expression of Mcl-1” value is recorded as “remarkably decreased” and the “expression of cleaved PARP” value was “dose-dependently induced the up-regulation”. Moreover, the “effect on cell cycle” value in the series on MGC-803 cells [5] is “significantly induced cell cycle arrest at G2/M”. Further, the “pathological damage of brain, heart, liver, spleen, lung, kidney (HE staining)” value in series [6] is reported as “no marked pathological damage”. Also, in [7], the average tumor volume entry is given as “decreased the average tumor volume”; the body weight entry was “did not cause significant changes in body weight”; the tumor weight entry is “decreased the average tumor volume and tumor weight”.
